A short description of data set [1]: Cytotoxicity against African green monkey Vero cells assessed as cell growth inhibition by GFP fluorescence based assay. In kind it is toxicity. Particulars: African green monkey (Chlorocebus sabaeus).
The next data set concerns Plasmodium falciparum. The data set can be described thus: Antimalarial activity against multi-drug resistant Plasmodium falciparum K1 infected in human erythrocytes assessed as parasite growth inhibition incubated for 24 hrs by [G-3H]hypoxanthine uptake assay. In kind it is functional, organism-based. Particulars: K1, Erythrocyte.

The structures appear in SMILES notation.

Usually IC50 stands for the concentration at which inhibition is half-maximal.

Take `C[C@H](CC[C@@H](O)[C@@](C)(O)CO)[C@H]1CC[C@@]2(C)C3=CC[C@H]4C(C)(C)C(=O)CC[C@]4(C)C3=CC[C@]12C`: the figures for the IC50 (in data set [1]; in the data set on Plasmodium falciparum) were over 106 µM and over 21 µM, respectively.

`C[C@H](CC[C@H](O)[C@](C)(O)COC(=O)[C@@H](C)CC(=O)C[C@@H](C)[C@H]1C[C@@H](O)[C@@]2(C)C3=C(C(=O)C[C@]12C)[C@@]1(C)CCC(=O)C(C)(C)[C@@H]1CC3=O)[C@H]1CC[C@@]2(C)C3=CC[C@H]4C(C)(C)C(=O)CC[C@]4(C)C3=CC[C@]12C`: the concentration for half-maximal inhibition (IC50) is over 52 µM in data set [1] and 0.77 µM in the data set with Plasmodium falciparum.

For `C[C@H](CC(=O)C[C@H](C)C(=O)O)[C@H]1C[C@H](O)[C@@]2(C)C3=C(C(=O)C[C@]12C)[C@@]1(C)CCC(=O)C(C)(C)[C@@H]1CC3=O`, the IC50 in data set [1] is over 97 µM; with Plasmodium falciparum, over 19 µM.

As to `C[C@H]1[C@@H](O)O[C@@H]2O[C@@]3(C)CC[C@H]4[C@H](C)CC[C@@H]1[C@@]24OO3` [ARTENIMOL], in the data set with Plasmodium falciparum, the IC50 worked out at 0.002 µM.

As for `C[C@H](CC[C@@H](OC(=O)[C@@H](C)CC(=O)C[C@@H](C)[C@H]1C[C@@H](O)[C@@]2(C)C3=C(C(=O)C[C@]12C)[C@@]1(C)CC[C@@H](O)C(C)(C)[C@@H]1CC3=O)[C@@](C)(O)CO)[C@H]1CC[C@@]2(C)C3=C(CC[C@]12C)[C@@]1(C)CCC(=O)C(C)(C)[C@@H]1C[C@H]3O`, the IC50 in data set [1] worked out at 17 µM; with Plasmodium falciparum, 0.67 µM.

On to `C.C[C@H](CC[C@@H](OC(=O)[C@@H](C)CC(=O)C[C@@H](C)[C@H]1C[C@@H](O)[C@@]2(C)C3=C(C(=O)C[C@]12C)[C@@]1(C)CC[C@@H](O)C(C)(C)[C@@H]1CC3=O)[C@@](C)(O)CO)[C@H]1CC[C@@]2(C)C3=CC[C@H]4C(C)(C)C(=O)CC[C@]4(C)C3=CC[C@]12C`, for which the IC50 in data set [1] is 9.2 µM; in the data set with Plasmodium falciparum it was 1.3 µM.

As for `C[C@H](CC(=O)C[C@H](C)C(=O)O)[C@H]1C[C@H](O)[C@@]2(C)C3=C(C(=O)C[C@]12C)[C@@]1(C)CCC(=O)C(C)(C)[C@@H]1C[C@H]3O`, the IC50 in data set [1] is over 97 µM; with Plasmodium falciparum, 19 µM.

For `C[C@H](CC[C@H](O)[C@](C)(O)CO)[C@H]1CC[C@@]2(C)C3=CC[C@H]4C(C)(C)C(=O)CC[C@]4(C)C3=CC[C@]12C` [GANODERMANONTRIOL], the IC50 in data set [1] was over 106 µM; in the data set with Plasmodium falciparum it was over 21 µM.

`C[C@H](CC(=O)C[C@H](C)C(=O)OC[C@@](C)(O)[C@@H](O)CC[C@@H](C)[C@H]1C[C@H](O)[C@@]2(C)C3=C(CC[C@]12C)[C@@]1(C)CCC(=O)C(C)(C)[C@@H]1CC3)[C@H]1C[C@@H](O)[C@@]2(C)C3=C(C(=O)C[C@]12C)[C@@]1(C)CCC(=O)C(C)(C)[C@@H]1CC3=O`: the IC50 in data set [1] was determined as 19 µM; in the data set with Plasmodium falciparum it was 0.035 µM.

For `C[C@H](CC(=O)C[C@H](C)C(=O)O[C@@H](CC[C@@H](C)[C@H]1C[C@H](O)[C@@]2(C)C3=C(CC[C@]12C)[C@@]1(C)CCC(=O)C(C)(C)[C@@H]1CC3)[C@](C)(O)CO)[C@H]1C[C@@H](O)[C@@]2(C)C3=C(C(=O)C[C@]12C)[C@@]1(C)CC[C@@H](O)C(C)(C)[C@@H]1CC3=O`, the IC50 in data set [1] stood at 13 µM; in the data set on Plasmodium falciparum, 0.23 µM.

As for `Cc1c2ccncc2c(C)c2c1[nH]c1ccccc12` [ELLIPTECINE], the IC50 in data set [1] is 2.9 µM.

Turning to `C[C@H](CC(=O)C[C@H](C)C(=O)O)[C@H]1C[C@H](O)[C@@]2(C)C3=C(C(=O)C[C@]12C)[C@@]1(C)CCC(=O)C(C)(C)[C@@H]1CC3`, the IC50 was over 100 µM in data set [1] and over 20 µM in the data set with Plasmodium falciparum.

On to `C[C@H](CC[C@@H](O)[C@@](C)(O)COC(=O)[C@@H](C)CC(=O)C[C@@H](C)[C@H]1C[C@@H](O)[C@@]2(C)C3=C(C(=O)C[C@]12C)[C@@]1(C)CCC(=O)C(C)(C)[C@@H]1CC3=O)[C@H]1CC[C@@]2(C)C3=CC[C@H]4C(C)(C)C(=O)CC[C@]4(C)C3=CC[C@]12C`, for which the IC50 in data set [1] is over 52 µM; with Plasmodium falciparum it was 1.09 µM.

With `C[C@H](CC(=O)C[C@H](C)C(=O)O)[C@H]1C[C@H](O)[C@@]2(C)C3=C(C(=O)C[C@]12C)[C@@]1(C)CC[C@@H](O)C(C)(C)[C@@H]1CC3=O`, the IC50 in data set [1] is over 97 µM; in the data set on Plasmodium falciparum, over 19 µM.

Take `C[C@H](CC[C@H](O)[C@](C)(O)COC(=O)[C@@H](C)CC(=O)C[C@@H](C)[C@H]1C[C@@H](O)[C@@]2(C)C3=C(C(=O)C[C@]12C)[C@@]1(C)CC[C@@H](O)C(C)(C)[C@@H]1CC3=O)[C@H]1CC[C@@]2(C)C3=CC[C@H]4C(C)(C)C(=O)CC[C@]4(C)C3=CC[C@]12C`: the IC50 in data set [1] stood at 24 µM; in the data set with Plasmodium falciparum it was 3.3 µM.

On to `C[C@H](CC[C@H](OC(=O)[C@@H](C)CC(=O)C[C@@H](C)[C@H]1C[C@@H](O)[C@@]2(C)C3=C(C(=O)C[C@]12C)[C@@]1(C)CC[C@@H](O)C(C)(C)[C@@H]1CC3=O)[C@](C)(O)CO)[C@H]1CC[C@@]2(C)C3=C(CC[C@]12C)[C@@]1(C)CCC(=O)C(C)(C)[C@@H]1C[C@H]3O`, for which the IC50 in data set [1] amounted to 2.3 µM; in the data set on Plasmodium falciparum, 0.39 µM.

As to `C[C@H](CC(=O)C[C@@H](C)[C@H]1C[C@@H](O)[C@@]2(C)C3=C(C(=O)C[C@]12C)[C@@]1(C)CCC(=O)C(C)(C)[C@@H]1CC3=O)C(=O)O[C@H](CC[C@@H](C)[C@H]1CC[C@@]2(C)C3=CC[C@H]4C(C)(C)C(=O)CC[C@]4(C)C3=CC[C@]12C)[C@@](C)(O)CO`, the IC50 in data set [1] was 9 µM; in the data set on Plasmodium falciparum, 2.33 µM.

`C[C@H](CC(=O)C[C@H](C)C(=O)O)[C@H]1C[C@H](O)[C@@]2(C)C3=C(C(=O)C[C@]12C)[C@@]1(C)CC[C@@H](O)C(C)(C)[C@@H]1CC3`: the figures for the IC50 (in data set [1]; in the data set on Plasmodium falciparum) were over 100 µM and over 20 µM, respectively.

Consider `C[C@H](CC(=O)C[C@H](C)C(=O)O[C@@H](CC[C@@H](C)[C@H]1C[C@H](O)[C@@]2(C)C3=C(CC[C@]12C)[C@@]1(C)CCC(=O)C(C)(C)[C@@H]1CC3)[C@](C)(O)CO)[C@H]1C[C@@H](O)[C@@]2(C)C3=C(C(=O)C[C@]12C)[C@@]1(C)CCC(=O)C(C)(C)[C@@H]1CC3=O`, for which the IC50 in data set [1] stood at 8.1 µM; with Plasmodium falciparum, 0.057 µM.

These data come from ChEMBL document CHEMBL5370614, “Antimalarial Lanostane Dimers from Artificially Cultivated Fruiting Bodies of Ganoderma weberianum” (J Nat Prod, 2023).
